From US20040057926A1, “Modulation of the immune response through the manipulation of arginine levels” (LSU Medical Center, priority 2002, published 2004)

What was measured:
Jurkat cells [1] = test: Proliferation of Jurkat cells with H. pylori sonicate (3H-thymidine); type: cell-based; details: NOHA 10 μg/ml, L-arginine 2 mM; sonicate 50 μg/ml
Description: Unless otherwise stated, the cells were always cultured in RPMI 1640 (Gibco Life-Technologies; Rockville, Md.) which contains 1104 μM L-arginine, 2.5 mM of L-glutamine, (Gibco), 25 mM HEPES (Gibco), 100 μg/ml of penicillin/streptomycin (Gibco), and 10% heat inactivated FCS (Hyclone). Jurkat cells were maintained at 0.5×10^6/ml. For proliferation assays Jurkat cells or peripheral blood mononuclear cells (PBMC) were placed at 2×10^5/well in round-bottom 96-well plates (Corning; Corning, N.Y.) and incubated for 2 h with increasing concentrations of the H. pylori sonicate ranging from 0.01 μg/ml to 100 μg/ml. After this, 30 ng/ml of anti-CD3 (Ortho Diagnostics, Raritan, N.J.) and 100 ng/ml of anti-CD28 (Becton-Dickinson Biosciences; Palo Alto, Calif.) were added to the PBMC. Jurkat cells were incubated for an additional 24 h and the PBMC for 48 h. […] The cells were collected onto glass fiber filters (Unifilter GF/B; Packard Bioscience; Meriden, Conn.) and radioactivity was counted in a Beta counter (Microplate Scintillation and Luminiscence Counter, TopCount, Packard).
[…] After addition of the sonicate plus NOHA or sonicate plus L-arginine mixture to the Jurkat cells, 1.0 μCi of ^3H-thymidine (NEN) was added per well, the cells were incubated at 37° C. for 18 h, harvested onto filters and counted in a β-counter (Packard).

Jurkat cells [2] = test: Co-culture in transwells of stimulated PM and Jurkat cells, CD3ζ expression; type: cell-based; details: for CD3ζ in Jurkat cells co-cultured with PM stimulated with IL-4+IL-13: NOHA 100 μM, Nor-NOHA 50 μM, L-Arg 2 mM, L-NIL 5 μg/ml, catalase 200 U/ml, L-NMMA, L-NNA, L-NAME 1 mM
Description: (§1) PM were cultured in 6 well plates in RPMI containing 150 μM L-Arg and stimulated with murine rIL-4 (50 U/ml) and murine rIL-13 (50 ng/ml), or murine rIFN-γ (100 U/ml) for 24 hours. Then 1×10^6 normal T-cells stimulated with anti-CD3 plus anti-CD28 or 1×10^6 Jurkat cells, were cultured in the top chamber of a transwell system having 0.4 μm pores (Falcon, Franklin lakes, N.J.). CD3ζ expression was measured in Jurkat cells or T lymphocytes at different time points. PM were detached using trypsin/EDTA and the expression of protein and RNA for CAT-2B, ASE I, ASE II and iNOS was tested by western blot and northern blot respectively. Cytoplasmic extracts from PM were used to test ASE activity. Supernatants from stimulated PM were used to measure NO production using the Griess reagent method (Molecular Probes, Eugene, Oreg.). In addition, the extra-cellular concentration of L-Arg was tested in supernatants by HPLC (Dr. Gu Yao Wu laboratory, University of Texas) as described previously. O'Quinn, P. R., D. A. Knabe, and G. Wu. 2002. Arginine catabolism in lactating porcine mammary tissue. J Anim Sci. 80:467-474.
Flow cytometry analysis was performed as previously described. Taheri, F., J. B. Ochoa, Z. Faghiri, K. Culotta, H. J. Park, M. S. Lan, A. H. Zea, and A. C. Ochoa. 2001. L-Arginine regulates the expression of the T-cell receptor zeta chain (CD3zeta) in Jurkat cells. Clin Cancer Res 7:958s-965s. Briefly, 5×10^5 Jurkat cells or T lymphocytes were washed once with Dulbecco phosphate-buffered saline 1× (D-PBS) and resuspended in 200 μL of D-PBS containing 1 μg of anti-CD3ε or isotype control. Cells were incubated for 15 min at 4° C., washed with D-PBS and resuspended in 200 μl D-PBS containing 500 μg/ml of digitonin plus 1 μg of anti-CD3ζ or 1 μg of isotypic control. Cells were incubated for 8 minutes after which they were washed and resuspended in 400 μl of D-PBS. Fluorescence acquisition and analysis were done using a Coulter-EPICS XL flow cytometer (Beckman-Coulter) with a 488 nm argon laser. The data were expressed as mean channel fluorescence intensity (MFI).

[3] = test system: peritoneal macrophages (PM); test: Extra-cellular L-Arg concentration in supernatants of peritoneal macrophages (HPLC); type: cell-based, mice; details: for extra-cellular L-Arg levels (mean of three experiments): L-Arg 2 mM, NOHA 100 μM, Nor-NOHA 50 μM; for rapid decrease in the extra-cellular levels of L-Arg: PM stimulated with IL-4+IL-13
Description: Jurkat T-cells, a CD4^+ cell line (Clone E6-1) (ATCC, Manassas, Va.) and normal stimulated T-cells were used to test the effect of ASE I, ASE II and iNOS produced by PM on CD3ζ expression. Six-week old female C57BL/6 mice were used to isolate peritoneal macrophages (PM). Briefly, 3 ml of thioglycolate-brewer (Becton Dickinson, San Jose, Calif.) were injected into the peritoneal cavity of mice for 3 days. Mice were then sacrificed and PM isolated by washing the peritoneum with HBSS. After 2 days of culture in RPMI with 4% fetal bovine serum, unattached cells were washed off and attached cells were used in co-cultures with Jurkat or normal T-cells.
as §1

Jurkat cells [4] = test: CD3ζ chain expression in Jurkat cells on L-arginine depletion or replenishment (Western blot, flow cytometry); type: cell-based
Description: Next, it was tested whether L-arginine depletion altered the expression of the key elements of the T-cell antigen receptor and IL-2 receptor in Jurkat cells. […] The decreased expression of ζ chain was not due to an overall protein degradation since the expression of GAPDH and CD3ε was virtually unchanged over the same period of time. […] The initial decrease in CD3ζ could be seen as early as 24 hours, but continued up to 7 days in culture as compared to its expression in Jurkat cells cultured in C-RPMI that remains unchanged (data not shown).
Reappearance of CD3ζ chain occurred either by adding L-arginine alone at a concentration of 100 μM (FIGS. 4a, dashed line, and 4b, lane 3), or by replacing the TCM with C-RPMI (FIGS. 4a, solid line, and 4b, lane 4). […] The data discussed is representative of at least five experiments in each case.

CAT-2B = CAT-2B (Homo sapiens, UniProt P52569); details: read-out: Km for L-Arg; cited from earlier work
H. pylori arginase = details: McGee, manuscript in preparation; cited from earlier work
T lymphocytes = test: Co-culture in transwells of stimulated PM and stimulated normal T lymphocytes, CD3ζ expression; type: cell-based, human
Description: T-cells were isolated from mononuclear cells of healthy donors by T-cell enrichment columns (R&D Systems, Minneapolis, Minn.) according to manufacturer specifications. T-cell purity (CD3+) ranged between 89-95%. The cycle of internalization and re-expression of the TCR-CD3 complex was induced by T-cell stimulation with 1 μg/ml of anti-CD3, 100 ng/ml of anti-CD28 (Becton Dickinson) and 10 μg/ml of goat anti-mouse IgG (KPL, Gaithersburg, Md.). Cells were stimulated in the absence of L-Arg and added to the co-cultures 24 h after stimulation.
as §1
Flow cytometry analysis was performed as previously described. Taheri, F., J. B. Ochoa, Z. Faghiri, K. Culotta, H. J. Park, M. S. Lan, A. H. Zea, and A. C. Ochoa. 2001. […] Fluorescence acquisition and analysis were done using a Coulter-EPICS XL flow cytometer (Beckman-Coulter) with a 488 nm argon laser. The data were expressed as mean channel fluorescence intensity (MFI).

[5] = PM stimulated with IL-4 + IL-13

CAT-2B, sequence (P52569 whole entry, species assumed): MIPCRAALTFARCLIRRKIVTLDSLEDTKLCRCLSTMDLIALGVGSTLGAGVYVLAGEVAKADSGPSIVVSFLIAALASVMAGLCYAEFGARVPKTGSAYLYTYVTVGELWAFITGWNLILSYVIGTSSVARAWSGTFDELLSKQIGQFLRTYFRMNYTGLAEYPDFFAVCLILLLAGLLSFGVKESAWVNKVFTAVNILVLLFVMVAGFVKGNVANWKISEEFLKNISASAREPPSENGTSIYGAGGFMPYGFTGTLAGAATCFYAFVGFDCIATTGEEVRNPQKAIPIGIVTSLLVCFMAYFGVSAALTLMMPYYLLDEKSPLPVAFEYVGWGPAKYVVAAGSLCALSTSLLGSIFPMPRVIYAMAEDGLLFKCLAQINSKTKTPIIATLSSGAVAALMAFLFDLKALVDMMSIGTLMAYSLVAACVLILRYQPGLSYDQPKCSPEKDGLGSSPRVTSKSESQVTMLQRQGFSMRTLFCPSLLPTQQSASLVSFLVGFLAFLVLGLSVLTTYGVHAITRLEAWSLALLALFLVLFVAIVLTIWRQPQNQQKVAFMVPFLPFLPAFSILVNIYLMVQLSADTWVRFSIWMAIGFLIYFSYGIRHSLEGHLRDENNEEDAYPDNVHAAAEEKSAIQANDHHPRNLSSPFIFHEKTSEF

Compound	Jurkat cell proliferation in the presence of H. pylori sonicate (Jurkat cells [1])	re-expression of CD3ζ on addition after 24 hours of co-culture (Jurkat cells [2]; 2 mM added, CD3ζ tested 24 hours later)	CD3ζ in Jurkat cells co-cultured with PM stimulated with IL-4+IL-13 (Jurkat cells [2])	extra-cellular L-Arg levels (mean of three experiments) ([3]; Non-stimulated PM) [µM]	extra-cellular L-Arg levels (mean of three experiments) [3, 5] [µM]	rapid decrease in the extra-cellular levels of L-Arg [3]	L-Arg concentrations that cause the rapid decrease of CD3ζ chain (Jurkat cells [4]; Jurkat cells, in vitro)	loss of CD3ζ on replenishing L-arginine in the tissue culture medium (Jurkat cells [4]; L-arginine alone at 100 μM)	Km (CAT-2B) [µM]	inhibition of H. pylori arginase (H. pylori arginase)	CD3ζ in normal stimulated T lymphocytes co-cultured with IL-4+IL-13 activated PM (T lymphocytes)
N=C(N)NCCC[C@H](N)C(=O)O [L-arginine]	prevented a decrease in cell proliferation	induced the re-expression of CD3ζ	prevented the decrease of CD3ζ	1267	59.8	partially blocked the rapid decrease	below 40 μM	fully reversible	100	–	–
NC(=NCCC[C@H](N)C(=O)O)NO [NOHA, NG-hydroxy-L-arginine]	prevented the decrease in Jurkat cell proliferation	–	prevented the decrease of CD3ζ	101.6	75.6	partially blocked the rapid decrease	–	–	–	only partially inhibit H. pylori arginase	prevented the loss of CD3ζ
